Measured values taken from patent US11077115B2, “Rorgamma modulators and uses thereof” (Genfit, priority 2017, dated 2021).
Structures can show the parent of a compound that is named as a salt.

Experiments:
human RORγt = target: T1, human RORγt (Homo sapiens, UniProt P51449); experiment: RORE Luciferase/RORγt transactivation assay (IL-17 promoter luciferase reporter in COS-7 cells); format: cell-based; set-up: V5-His (named only through the vector pcDNA3.1D/V5-His-TOPO); expressed in transfected cells; host or cells: COS-7 (monkey kidney); conditions: RORγt activity inhibition, luciferase activity in transfected COS-7 cells, 20 h
T1 sequence (P51449 1-497 isoform P51449-2): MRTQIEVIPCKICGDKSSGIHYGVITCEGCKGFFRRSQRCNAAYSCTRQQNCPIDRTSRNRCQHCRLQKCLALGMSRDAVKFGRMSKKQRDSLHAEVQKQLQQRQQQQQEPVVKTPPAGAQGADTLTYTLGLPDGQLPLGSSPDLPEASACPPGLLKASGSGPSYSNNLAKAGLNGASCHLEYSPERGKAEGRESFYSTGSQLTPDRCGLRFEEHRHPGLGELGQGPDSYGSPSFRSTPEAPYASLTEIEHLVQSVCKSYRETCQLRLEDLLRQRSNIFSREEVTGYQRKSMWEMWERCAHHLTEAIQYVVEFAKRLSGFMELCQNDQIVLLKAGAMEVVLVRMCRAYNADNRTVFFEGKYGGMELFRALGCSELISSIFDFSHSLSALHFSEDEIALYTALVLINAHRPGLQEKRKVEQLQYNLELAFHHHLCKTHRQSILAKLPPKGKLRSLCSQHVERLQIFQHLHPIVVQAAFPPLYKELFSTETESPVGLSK
Method: It is well known that RORγ binds to a conserved non-coding sequence (CNS) enhancer element in the IL-17 promoter.
Culture medium was changed every 2 days.
The 4.3 Kb human IL-17 promoter containing the RORγ-specific CNS enhancer element was PCR amplified from human genomic DNA and cloned into a pGL3-TKLuc2Cp reporter plasmid.
The luciferase reporter plasmid and the RORγt overexpression plasmid were transfected into COS-7 cell line using 4 μL JetPEI™/μg of DNA. Briefly, 150 ng of DNA (ration 1/2 between RORE-Tk Luc2Cp and cDNA RORγt or the empty vector for the negative control) was served to transfect adherent COS-7 cells in a […] culture flask, in complete medium (see cos-7 cell line culture).
Cells were then detached (using trypsin) and washed by centrifugation at 300 g for 10 minutes. Cell pellet was resuspended in serum free/phenol red free DMEM and seeded in 384 well plates at a density of 10000 cells/well and then incubated for 4 h at 37° C.
Compounds were dissolved in 100% DMSO to obtain 10 mM stock solutions. For each compound, test concentrations were diluted in serum free/phenol red free DMEM using the Genesis Freedom 200™ (TECAN) and added to the cells to obtain a 0.3% DMSO final concentration (in a final volume of 40 μL per well).
The luciferase activity was then measured with 40 μL/well steady-Glo Luciferase assay system (Promega, Madison, Wis.) and after incubation at room temperature for 30 minutes. The luminescence was estimated using the Ultra384 reader (TECAN). Data were collected and analyzed using GraphPad Prism software (GraphPad Software V5.02, San Diego Calif. USA). IC50 in μM and E max in % were reported for each compound.

| SMILES | melting point [°C] | IC50 (human RORγt) [nM] |
| --- | --- | --- |
| Cc1ccc(C(NC(=O)Cc2ccc(N3CCS(=O)(=O)CC3)nc2)c2ccc(C)o2)c(N2CCCCC2)c1 (centres unmarked) (as salt: HCl) [Cpd. 27, 2-[6-(1,1-dioxo-1-thiomorpholin-4-yl)pyridin-3-yl]-N-{[4-methyl-2-(piperidin-1-yl)phenyl](5-methylfuran-2-yl)methyl}acetamide] | 102 |  |
| Cc1ccc(C(NC(=O)Cc2ccc(N3CCS(=O)(=O)CC3)cc2)c2ccccc2)c(Br)c1 (centres unmarked) (as salt: HCl) [Cpd. 9, N-[(2-bromo-4-methylphenyl)(phenyl)methyl]-2-[4-(1,1-dioxo-1-thiomorpholin-4-yl)phenyl]acetamide] | 142 |  |
| Cc1ccc(C(NC(=O)Cc2cnc(N3CCS(=O)(=O)CC3)nc2)c2ccc(C)o2)c(C(F)(F)F)c1 (centres unmarked) [Cpd. 33, 2-[2-(1,1-dioxo-1-thiomorpholin-4-yl)pyrimidin-5-yl]-N-{[4-methyl-2-(trifluoromethyl)phenyl](5-methylfuran-2-yl)methyl}acetamide] |  | 1000 to 10000 |
| COCc1ccc(CC(=O)NC(c2ccc(C)o2)c2ccc(C)cc2N2CCCCC2)cc1N1CCS(=O)(=O)CC1 (centres unmarked) [Cpd. 62, 2-[3-(1,1-dioxo-1-thiomorpholin-4-yl)-4-(methoxymethyl)phenyl]-N-{[4-methyl-2-(piperidin-1-yl)phenyl](5-methylfuran-2-yl)methyl}acetamide] |  | 100 to 1000 |
| Cc1ccc(C(NC(=O)Cc2ccc(CO)c(N3CCS(=O)(=O)CC3)c2)c2ccc(C)o2)c(N2CCCCC2)c1 (centres unmarked) [Cpd. 63, 2-[3-(1,1-dioxo-1-thiomorpholin-4-yl)-4-(hydroxymethyl)phenyl]-N-{[4-methyl-2-(piperidin-1-yl)phenyl](5-methylfuran-2-yl)methyl}acetamide] |  | 100 to 1000 |
| Cc1ccc(C(NC(=O)C2(c3ccc(N4CCS(=O)(=O)CC4)cn3)CC2)c2ccc(C)o2)c(C)c1 (centres unmarked) [Cpd. 73, N-[(2,4-dimethylphenyl)(5-methylfuran-2-yl)methyl]-1-[5-(1,1-dioxo-1-thiomorpholin-4-yl)pyridin-2-yl]cyclopropane-1-carboxamide] |  | 100 to 1000 |
| Cc1ccc(C(NC(=O)Cc2cnc(N3CCS(=O)(=O)CC3)nc2)c2ccc(Cl)cc2Cl)o1 (centres unmarked) [Cpd. 50, N-[(2,4-dichlorophenyl)(5-methylfuran-2-yl)methyl]-2-[2-(1,1-dioxo-1-thiomorpholin-4-yl)pyrimidin-5-yl]acetamide] |  | 1000 to 10000 |

Next, values leading:

| melting point [°C] | IC50 (human RORγt) [nM] | SMILES |
| --- | --- | --- |
| 98 |  | COc1ccc(C(NC(=O)Cc2ccc(N3CCS(=O)(=O)CC3)c(C)c2)c2ccc(C)o2)c(N(C)C)c1 (centres unmarked) (as salt: HCl) [Cpd. 15, N-{[2-(dimethylamino)-4-methoxyphenyl](5-methylfuran-2-yl)methyl}-2-[4-(1,1-dioxo-1-thiomorpholin-4-yl)-3-methylphenyl]acetamide] |
| 90 |  | COc1cc(CC(=O)NC(c2ccc(C)o2)c2ccc(C)cc2N2CCCCC2)ccc1N1CCS(=O)(=O)CC1 (centres unmarked) (as salt: HCl) [Cpd. 29, 2-[4-(1,1-dioxo-1-thiomorpholin-4-yl)-3-methoxyphenyl]-N-{[4-methyl-2-(piperidin-1-yl)phenyl](5-methylfuran-2-yl)methyl}acetamide] |
| 174 |  | COc1ccc(C2(C(=O)NC(c3ccc(C)o3)c3ccc(C)cc3C)CC2)cc1N1CCS(=O)(=O)CC1 (centres unmarked) (as salt: HCl) [Cpd. 69, N-[(2,4-dimethylphenyl)(5-methylfuran-2-yl)methyl]-1-[3-(1,1-dioxo-1-thiomorpholin-4-yl)-4-methoxyphenyl]cyclopropane-1-carboxamide] |
|  | < 100 | Cc1ccc(C(NC(=O)Cc2ccc(N3CCS(=O)(=O)CC3)c(O)c2)c2ccc(C)o2)c(N2CCCCC2)c1 (centres unmarked) [Cpd. 61, 2-[4-(1,1-dioxo-1-thiomorpholin-4-yl)-3-hydroxyphenyl]-N-{[4-methyl-2-(piperidin-1-yl)phenyl](5-methylfuran-2-yl)methyl}acetamide] |
